Results reported in article PMC3985444 (Journal of Chemical Information and Modeling, 2014).

Tests used:
[1] = target: T1, human 5-HT1A receptor (Homo sapiens, UniProt P08908); assay: Radioligand competition binding assay
T1 sequence (P08908 1-422): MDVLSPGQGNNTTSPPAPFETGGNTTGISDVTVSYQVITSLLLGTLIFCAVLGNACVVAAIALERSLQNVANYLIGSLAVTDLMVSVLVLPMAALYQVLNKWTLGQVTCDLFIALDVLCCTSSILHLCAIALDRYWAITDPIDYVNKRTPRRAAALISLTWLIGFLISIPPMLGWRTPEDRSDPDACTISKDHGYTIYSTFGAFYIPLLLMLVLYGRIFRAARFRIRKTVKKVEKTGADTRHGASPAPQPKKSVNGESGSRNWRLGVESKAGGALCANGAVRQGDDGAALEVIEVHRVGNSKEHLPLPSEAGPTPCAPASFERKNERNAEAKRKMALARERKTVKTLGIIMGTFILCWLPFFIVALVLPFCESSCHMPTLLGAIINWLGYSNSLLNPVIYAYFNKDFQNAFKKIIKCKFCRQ

[2] = test system: dopamine receptors; conditions: cited from earlier work
[3] = test system: 5-HT2A; conditions: cited from earlier work
[4] = test system: 5-HT1B; conditions: cited from earlier work
[5] = test system: 5-HT1D; conditions: cited from earlier work

Compound | Ki [1] [nM] | binding with dopamine receptors [2] | binding with 5-HT2A [3] | binding to 5-HT1B [4] | binding to 5-HT1D [5]
CC[C@@H](CO)NC(=O)[C@@H]1C=C2c3cccc4c3c(cn4C)C[C@H]2N(C)C1 [Methysergide] | 26 | – | – | – | –
CN1CCCCC1CCN1c2ccccc2Sc2ccc([S+](C)[O-])cc21 (stereo not shown) [Mesoridazine] | 33.1 | potent binding | potent binding | – | –
CN1C[C@@H](CO)C=C2c3cccc4[nH]cc(c34)C[C@H]21 [ST057540, [(8α)-6-methyl-9,10-didehydroergolin-8-yl]methanol] | 2.3 | – | – | high-affinity binding | high-affinity binding
